In PubChem BioAssay AID651919 (Sanford-Burnham Center for Chemical Genomics, 2012):
Several values for one entry are separate records, joined by “and”; a condition that tells them apart may be missing. Equal values may be shown once. Activity calls are given as the source filed them.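 The calls were made as follows: active = CXCR6 IC50 below 5 µM, and the CXCR5 counter screen gives no IC50 under five times the CXCR6 IC50; inactive = the rest.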

What was measured:
[1] = target: C-X-C chemokine receptor type 6 (Homo sapiens) (UniProt O00574); experiment: CXCR6 and CXCR5 receptor antagonist panel, profiling panel, selectivity assay for CXCR6 antagonist project, cell-based, CHO-K1 PathHunter beta-arrestin, luminescence, set 4 (AID 651919); conditions: CHO-K1 PathHunter CXCR6 beta-arrestin, CXCR6, mean of runs
Sequence of C-X-C chemokine receptor type 6 (Homo sapiens) (O00574 whole entry, looked up): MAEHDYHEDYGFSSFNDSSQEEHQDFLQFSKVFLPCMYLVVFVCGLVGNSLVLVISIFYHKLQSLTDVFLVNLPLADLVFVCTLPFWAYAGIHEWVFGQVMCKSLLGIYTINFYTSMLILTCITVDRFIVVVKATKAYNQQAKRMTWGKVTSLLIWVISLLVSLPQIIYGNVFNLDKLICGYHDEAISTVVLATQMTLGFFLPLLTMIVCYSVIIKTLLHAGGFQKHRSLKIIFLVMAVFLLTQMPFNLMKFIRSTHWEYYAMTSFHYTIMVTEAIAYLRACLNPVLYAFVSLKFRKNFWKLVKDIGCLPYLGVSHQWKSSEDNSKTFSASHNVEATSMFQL

[2] = target: C-X-C chemokine receptor type 5 (Homo sapiens) (UniProt P32302); experiment: as above; conditions: CHO-K1 PathHunter CXCR5 beta-arrestin, CXCR5, mean of runs

| IC50 [1] | IC50 [2] | Compound |
| --- | --- | --- |
| > 79 µM (inactive) | > 79 µM (inactive) | O=C(CN1C2CCCC1CC(NC(=O)c1ccccc1)C2)Nc1ccccc1 (stereo not drawn) |
| > 79 µM (inactive) | > 79 µM (inactive) | COc1ccc(C(=O)NC2CC3CCCC(C2)N3CC(=O)Nc2ccc(Cl)cc2)cc1OC (stereo not drawn) |
| 1.48 µM | > 79 µM (inactive) | COc1cc(C(=O)NC2CC3CCCC(C2)N3CC(=O)Nc2ccc(Cl)cc2)cc(OC)c1OC (stereo not drawn) |
| > 79 µM (inactive) | > 79 µM (inactive) | COc1ccc(NC(=O)CN2C3CCCC2CC(NC(=O)c2ccc4c(c2)OCO4)C3)cc1 (stereo not drawn) |
| > 79 µM (inactive) | > 79 µM (inactive) | COc1ccc(C(=O)NC2CC3CCCC(C2)N3CC(=O)Nc2ccccc2)cc1 (stereo not drawn) |
| > 79 µM (inactive) | > 79 µM (inactive) | COc1cccc(C(=O)NC2CC3CCCC(C2)N3CC(=O)Nc2ccccc2)c1 (stereo not drawn) |
| inactive | > 79 µM (inactive) | COc1ccc(CN2C3CCCC2CC(NC(=O)c2cc(OC)c(OC)c(OC)c2)C3)cc1 (stereo not drawn) |
| > 79 µM (inactive) | > 79 µM (inactive) | COc1ccc(C(=O)NC2CC3CCCC(C2)N3CC(=O)Nc2ccc(F)cc2)cc1OC (stereo not drawn) |
| > 79 µM (inactive) | > 79 µM (inactive) | O=C(CN1C2CCCC1CC(NC(=O)c1ccc3c(c1)OCO3)C2)Nc1ccc(Cl)cc1 (stereo not drawn) |
| inactive | > 79 µM (inactive) | COc1cc(C(=O)NC2CC3CCCC(C2)N3CC(=O)Nc2ccc(C)cc2)cc(OC)c1OC (stereo not drawn) |
| > 79 µM (inactive) | > 79 µM (inactive) | Cc1ccc(NC(=O)CN2C3CCCC2CC(NC(=O)c2ccc4c(c2)OCO4)C3)cc1 (stereo not drawn) |
| > 79 µM (inactive) | > 79 µM (inactive) | O=C(CN1C2CCCC1CC(NC(=O)c1ccc3c(c1)OCO3)C2)Nc1ccc(F)cc1 (stereo not drawn) |
| > 79 µM (inactive) | > 79 µM (inactive) | COc1ccc(NC(=O)CN2C3CCCC2CC(NC(=O)c2cccc(OC)c2)C3)cc1 (stereo not drawn) |
| 0.356 µM and 0.137 µM | > 79 µM (inactive) | COc1cc(C(=O)NC2CC3CCCC(C2)N3CC(=O)Nc2ccccc2Cl)cc(OC)c1OC (stereo not drawn) |
| 1.85 µM | > 79 µM (inactive) | COc1ccccc1NC(=O)CN1C2CCCC1CC(NC(=O)c1cc(OC)c(OC)c(OC)c1)C2 (stereo not drawn) |
| > 79 µM (inactive) | > 79 µM (inactive) | COc1cccc(C(=O)NC2CC3CCCC(C2)N3CC(=O)Nc2ccc(F)cc2)c1 (stereo not drawn) |
| > 79 µM (inactive) | > 79 µM (inactive) | COc1ccc(NC(=O)CN2C3CCCC2CC(NC(=O)c2ccc(OC)c(OC)c2)C3)cc1 (stereo not drawn) |

| IC50 [1] | IC50 [2] | Compound |
| --- | --- | --- |
| > 79 µM (inactive) | 43.4 µM | COc1cc(OC)cc(C(=O)NC2CC3CCCC(C2)N3CC(=O)Nc2ccc(F)cc2)c1 (stereo not drawn) |
| inactive | > 79 µM (inactive) | COc1ccc(NC(=O)CN2C3CCCC2CC(NC(=O)c2cc(OC)c(OC)c(OC)c2)C3)cc1 (stereo not drawn) |
| > 79 µM (inactive) | > 79 µM (inactive) | COc1ccc(C(=O)NC2CC3CCCC(C2)N3CC(=O)Nc2ccc(C)cc2)cc1OC (stereo not drawn) |
| > 79 µM (inactive) | > 79 µM (inactive) | COc1ccc(C(=O)NC2CC3CCCC(C2)N3CC(=O)Nc2ccc(Cl)cc2)cc1 (stereo not drawn) |
| inactive | > 79 µM (inactive) | COc1cc(C(=O)NC2CC3CCCC(C2)N3CC(=O)Nc2ccc(F)cc2)cc(OC)c1OC (stereo not drawn) |
| > 79 µM (inactive) | > 79 µM (inactive) | O=C(CN1C2CCCC1CC(NC(=O)c1ccc3c(c1)OCO3)C2)Nc1ccccc1 (stereo not drawn) |
| > 79 µM (inactive) | > 79 µM (inactive) | COc1ccc(C(=O)NC2CC3CCCC(C2)N3CC(=O)Nc2ccc(C)cc2)cc1 (stereo not drawn) |
| > 79 µM (inactive) | > 79 µM (inactive) | COc1ccc(C(=O)NC2CC3CCCC(C2)N3CC(=O)Nc2ccc(F)cc2)cc1 (stereo not drawn) |
| > 79 µM (inactive) | 12.5 µM | COc1cc(OC)cc(C(=O)NC2CC3CCCC(C2)N3CC(=O)Nc2ccccc2)c1 (stereo not drawn) |
| > 79 µM (inactive) | > 79 µM (inactive) | COc1cc(OC)cc(C(=O)NC2CC3CCCC(C2)N3CC(=O)Nc2ccc(Cl)cc2)c1 (stereo not drawn) |
| > 79 µM (inactive) | > 79 µM (inactive) | COc1ccc(NC(=O)CN2C3CCCC2CC(NC(=O)c2cc(OC)cc(OC)c2)C3)cc1 (stereo not drawn) |
| > 79 µM (inactive) | > 79 µM (inactive) | COc1cc(OC)cc(C(=O)NC2CC3CCCC(C2)N3CC(=O)Nc2ccc(C)cc2)c1 (stereo not drawn) |
| 3.4 µM and 4.74 µM | > 79 µM (inactive) | COc1cc(C(=O)NC2CC3CCCC(C2)N3CC(=O)Nc2ccccc2)cc(OC)c1OC (stereo not drawn) |
| > 79 µM (inactive) | > 79 µM (inactive) | COc1ccc(NC(=O)CN2C3CCCC2CC(NC(=O)c2ccc(OC)cc2)C3)cc1 (stereo not drawn) |
| > 79 µM (inactive) | > 79 µM (inactive) | COc1cccc(C(=O)NC2CC3CCCC(C2)N3CC(=O)Nc2ccc(Cl)cc2)c1 (stereo not drawn) |
| > 79 µM (inactive) | > 79 µM (inactive) | COc1cccc(C(=O)NC2CC3CCCC(C2)N3CC(=O)Nc2ccc(C)cc2)c1 (stereo not drawn) |
| > 79 µM (inactive) | > 79 µM (inactive) | COc1ccc(C(=O)NC2CC3CCCC(C2)N3CC(=O)Nc2ccccc2)cc1OC (stereo not drawn) |
